Assay results taken from patent US4695569A, “Bicyclic heterocyclyl containing N-(bicyclic heterocyclyl)-4-piperidinamines” (Janssen Pharmaceutica N.V., priority 1987, dated 1987).

Tests used:
[1] = tested on: serotonin; test: Antagonistic activity on the effects of serotonin in the gastric lesion test (lesions induced by compound 48/80); format: in vivo, rat (male, Wistar inbred strain); details: Rattus norvegicus, po, 4 h; read-out: gastric lesion test ED50 (distension of the stomach and lesions in the glandular area completely absent in 50% of rats)
Text: The compounds of formula (I) and the pharmaceutically acceptable acid addition salts thereof are also potent serotonin-antagonists. The potency of the subject compounds as serotonin-antagonists is clearly evidenced by the results obtained in the following tests wherein the antagonistic activity of the subject compounds on the effect of serotonin is examined.
Antagonistic activity on the effects of serotonin in the gastric lesion test
Comound 48/80 (a mixture of oligomers obtained by condensation of 4-methoxy-N-methylbenzeneethanamine and formaldehyde) is a potent releaser of vasoactive amines from endogenous stores such as, for example, histamine and serotonin. […] The shock, followed by dead, can be avoided if the rats are pretreated with a classical H 1 antagonist.
Male rats of a Wistar inbred strain, weighing 220-250 g, were starved overnight, water being available ad libitum. The test compounds were administered orally as a solution or as a suspension in aqueous medium. A control rat and a "blank" rat received the test compound. One hour later 5-[4-(diphenylmethyl)-1-piperazinylmethyl]-1-methyl-1H-benzimidazole-2-methanol was administered subcutaneously to all rats at the dose of 2.5 mg/kg.
Four hours after the intravenous injection of compound 48/80, the rats were decapitated and the stomachs were removed. Subsequently the stomachs ere inspected for distension and contents (blood, fluid, food) and thoroughly rinsed. The macroscopic lesions were scored from 0 to +++, 0 corresponding to complete absence of visible lesions and the highest score corresponding to reddish rough patches covering more than half the glandular area.

[2] = tested on: compound 48/80-induced lethality; test: Protection of rats from compound 48/80-induced lethality; format: in vivo, rat (male, inbred Wistar strain); details: Rattus norvegicus, 4 h, read-out: Compound 48/80 lethality test in rats-ED50
Protocol: Protection of rats from compound 48/80-induced lethality
The protection from compound 48/80-induced lethal circulatory collapse appears to be a simple way of evaluating quantitatively the antihistaminic activity of test compounds. Male rats of an inbred Wistar strain, weighing 240-260 g were used in the experiment. After overnight starvation the rats were transferred to conditioned laboratories (temp.=21±1° C., relative humidity=65±5%).
The rats were treated subcutaneously or orally with a test compound or with the solvent (NaCl solution, 0.9%). […] Survival after 4 hours is therefore considered to be a safe criterion of a protective effect of drug administration.
The ED50 -values of the compounds of formula (I) are listed in the first column of table 1. Said ED50 -values are the values in mg/kg body weight at which the tested compounds protect 50% of the tested animals against compound 48/80-induced lethality.

SMILES: Cc1nc2scc(C)n2c(=O)c1CCN1CCC(Nc2nc3ccccc3n2Cc2ccco2)CC1 [Compound 9]
- ED50 [1]: 0.16 mg/kg
- ED50 [2]: 0.08 mg/kg

SMILES: Cc1nc2n(c(=O)c1CCN1CCC(Nc3nc4ccccc4n3Cc3ccccn3)CC1)CCCC2 [Compound 57]
- ED50 [2]: 0.16 mg/kg

SMILES: O=c1[nH]c2c(Cl)ncnc2n1CCN1CCC(Nc2nc3ccccc3n2Cc2ccc(F)cc2)CC1 [Compound 144, 6-chloro-9-[2-[4-[[1-[(4-fluorophenyl)methyl]-1H-benzimidazol-2-yl]amino]-1-piperidinyl]ethyl]-7,9-dihydro-8H-purin-8-one]
- ED50 [2]: 0.08 mg/kg

SMILES: Cc1nc2n(c(=O)c1CCN1CCC(Nc3nc4ccccc4n3Cc3cccs3)CC1)CCCC2 [Compound 59]
- ED50 [1]: 0.31 mg/kg
- ED50 [2]: 0.08 mg/kg

SMILES: Fc1ccc(Cn2c(NC3CCN(CCNc4nc5cnccc5[nH]4)CC3)nc3cccnc32)cc1 [Compound 114]
- ED50 [1]: 0.63 mg/kg
- ED50 [2]: 0.02 mg/kg

SMILES: Fc1ccc(Cn2c(NC3CCN(CCc4cn5cccnc5n4)CC3)nc3ccccc32)cc1 [Compound 151, 1-[(4-fluorophenyl)methyl]-N-[1-[2-(imidazo[3,2-a]pyrimidin-2-yl)ethyl]-4-piperidinyl]-1H-benzimidazol-2-amine]
- ED50 [2]: 0.08 mg/kg

SMILES: Cc1nc2cccc(C)n2c(=O)c1CCN1CCC(Nc2nc3cccnc3n2Cc2ccco2)CC1 [Compound 75]
- ED50 [2]: 0.01 mg/kg

SMILES: Cc1nc2ccccn2c(=O)c1CCN1CCC(Nc2nc3cccnc3n2Cc2ccc(F)cc2)CC1.Cl.Cl [Compound 22, 3-[2-[4-[[3-[(4-fluorophenyl)methyl]-3H-imidazo[4,5-b]-pyridin-2-yl]amino]-1-piperidinyl]ethyl]-2-methyl-4H-pyrido[1,2-a]pyrimidin-4-one dihydrochloride]
- ED50 [2]: 0.16 mg/kg

SMILES: Cc1nc2n(c(=O)c1CCN1CCC(Nc3nc4cccnc4n3Cc3ccco3)CC1)CCS2 [Compound 48]
- ED50 [2]: 0.08 mg/kg

SMILES: O=c1[nH]c2ccccc2c(=O)n1CCN1CCC(Nc2nc3cccnc3n2Cc2ccc(F)cc2)CC1 [Compound 25]
- ED50 [2]: 0.16 mg/kg

SMILES: Cc1nc2sccn2c(=O)c1CCN1CCC(Nc2nc3ccccc3n2Cc2ccco2)CC1 [Compound 31]
- ED50 [1]: 0.02 mg/kg
- ED50 [2]: 0.04 mg/kg

SMILES: Cc1nc2ccc(Cl)cn2c(=O)c1CCN1CCC(Nc2nc3cccnc3n2Cc2ccco2)CC1 [Compound 21]
- ED50 [1]: 0.63 mg/kg
- ED50 [2]: 0.04 mg/kg

SMILES: Fc1ccc(Cn2c(NC3CCN(CCNc4nc5cnccc5s4)CC3)nc3ccccc32)cc1 [Compound 104, N-[2-[4-[[1-[(4-fluorophenyl)methyl]-1H-benzimidazol-2-yl]amino]-1-piperidinyl]ethyl]thiazolo[4,5-c]pyridin-2-amine]
- ED50 [1]: 0.31 mg/kg
- ED50 [2]: 0.16 mg/kg

SMILES: Cn1cnc2c(NCCN3CCC(Nc4nc5ccccc5n4Cc4ccc(F)cc4)CC3)ncnc21 [Compound 94]
- ED50 [1]: 0.63 mg/kg
- ED50 [2]: 0.31 mg/kg

SMILES: Cc1nc2ccccn2c(=O)c1CCN1CCC(Nc2nc3ccccc3n2Cc2ccco2)CC1 [Compound 5]
- ED50 [1]: 0.04 mg/kg
- ED50 [2]: 0.16 mg/kg

SMILES: Cc1nc2ccccn2c(=O)c1CCN1CCC(Nc2nc3cc(F)c(F)cc3n2Cc2ccc(F)cc2)CC1 [Compound 70]
- ED50 [1]: 0.63 mg/kg
- ED50 [2]: 0.31 mg/kg

SMILES: Cn1c(=O)c2c(ncn2CCN2CCC(Nc3nc4ccccc4n3Cc3ccco3)CC2)n(C)c1=O [Compound 39]
- ED50 [1]: 0.63 mg/kg
- ED50 [2]: 0.16 mg/kg

SMILES: O=c1c2ccccc2[nH]c(=S)n1CCN1CCC(Nc2nc3ccccc3n2Cc2ccco2)CC1 [Compound 132, 3-[2-[4-[[1-(2-furanylmethyl)-1H-benzimidazol-2-yl]amino]-1-piperidinyl]ethyl]-2,3-dihydro-2-thioxo-4(1H)-quinazolinone]
- ED50 [2]: 0.16 mg/kg

SMILES: Cc1nc2sccn2c(=O)c1CCN1CCC(Nc2nc3ccccc3n2Cc2ccc(F)cc2)CC1 [Compound 27]
- ED50 [2]: 0.08 mg/kg

SMILES: Cc1nc2n(c(=O)c1CCN1CCC(Nc3nc4cccnc4n3Cc3ccco3)CC1)C(C)CCC2 (stereo not shown) [Compound 54]
- ED50 [2]: 0.31 mg/kg

SMILES: Cc1nc2ccccn2c(=O)c1CCN1CCC(Nc2nc3ccccc3n2Cc2cnccn2)CC1 [Compound 68, 2-methyl-3-[2-[4-[[1-(2-pyrazinylmethyl)-1H-benzimidazol-2-yl]amino]-1-piperidinyl]ethyl]-4H-pyrido[1,2-a]pyrimidin-4-one]
- ED50 [2]: 0.08 mg/kg

SMILES: Cc1nc2c(NCCN3CCC(Nc4nc5ccccc5n4Cc4ccc(F)cc4)CC3)ncnc2n1C [Compound 96]
- ED50 [2]: 0.16 mg/kg

SMILES: Fc1ccc(Cn2c(NC3CCN(CCOc4nc5cccnc5s4)CC3)nc3ccccc32)cc1 [Compound 107, 1-[(4-fluorophenyl)methyl]-N-[1-[2-[(thiazolo[5,4-b]pyridin-2-yl)oxy]ethyl]-4-piperidinyl]-1H-benzimidazol-2-amine]
- ED50 [2]: 0.16 mg/kg

SMILES: Cc1nc2ccc(Br)cn2c(=O)c1CCN1CCC(Nc2nc3cccnc3n2Cc2ccco2)CC1 [Compound 76]
- ED50 [2]: 0.08 mg/kg

SMILES: Cc1nc2n(c(=O)c1CCN1CCC(Nc3nc4cccnc4n3Cc3ccco3)CC1)CCCS2 [Compound 14]
- ED50 [2]: 0.02 mg/kg

SMILES: Cn1c(=O)c2c(ncn2CCN2CCC(Nc3nc4cccnc4n3Cc3ccc(F)cc3)CC2)n(C)c1=O [Compound 43]
- ED50 [2]: 0.16 mg/kg

SMILES: Cn1c(=O)n(CCN2CCC(Nc3nc4cccnc4n3Cc3ccc(F)cc3)CC2)c(=O)c2ccccc21 [Compound 36]
- ED50 [2]: 0.16 mg/kg

SMILES: Cn1c(=O)n(CCN2CCC(Nc3nc4cccnc4n3Cc3ccco3)CC2)c(=O)c2ccccc21 [Compound 35]
- ED50 [2]: 0.02 mg/kg

SMILES: O=c1[nH]c2ccccc2c(=O)n1CCCN1CCC(Nc2nc3ccccc3n2Cc2ccco2)CC1 [Compound 30]
- ED50 [2]: 0.16 mg/kg

SMILES: Cn1cnc2c(NCCN3CCC(Nc4nc5ccccc5n4Cc4ccccc4)CC3)ncnc21 [Compound 100]
- ED50 [2]: 0.16 mg/kg

SMILES: Cc1nc2n(c(=O)c1CCN1CCC(Nc3nc4ccccc4n3Cc3ccc(Cl)cc3)CC1)CCCC2 [Compound 69]
- ED50 [2]: 0.16 mg/kg

SMILES: Cn1c(=O)c2c(ncn2CCN2CCC(Nc3nc4cccnc4n3Cc3ccco3)CC2)n(C)c1=O [Compound 42]
- ED50 [2]: 0.16 mg/kg

SMILES: O=c1[nH]c2ccccc2c(=O)n1CCN1CCC(Nc2nc3cccnc3n2Cc2ccco2)CC1 [Compound 26]
- ED50 [2]: 0.08 mg/kg

SMILES: Cc1nc2n(c(=O)c1CCN1CCC(Nc3nc4ccccc4n3Cc3ccco3)CC1)CCCC2 [Compound 44]
- ED50 [2]: 0.16 mg/kg

SMILES: Cc1nc2n(c(=O)c1CCN1CCC(Nc3nc4ccccc4n3Cc3ccc(F)cc3)CC1)CCCC2 [Compound 45]
- ED50 [2]: 0.08 mg/kg

SMILES: Cn1cnc2c(NCCN3CCC(Nc4nc5cc(O)ccc5n4Cc4ccc(F)cc4)CC3)ncnc21 [Compound 102]
- ED50 [2]: 0.08 mg/kg

SMILES: Cc1nc2n(c(=O)c1CCN1CCC(Nc3nc4cccnc4n3Cc3ccc(F)cc3)CC1)CCCS2 [Compound 16]
- ED50 [2]: 0.16 mg/kg

SMILES: O=c1[nH]c2ccccc2c(=O)n1CCCN1CCC(Nc2nc3cccnc3n2Cc2ccco2)CC1 [Compound 32]
- ED50 [2]: 0.04 mg/kg

SMILES: c1ccc(Cn2c(NC3CCN(CCNc4nc5cnccc5[nH]4)CC3)nc3cccnc32)nc1 [Compound 113]
- ED50 [2]: 0.04 mg/kg

SMILES: Cc1nc2ccccn2c(=O)c1CCN1CCC(Nc2nc3ccncc3n2Cc2ccc(F)cc2)CC1 [Compound 79]
- ED50 [2]: 0.16 mg/kg

SMILES: O=c1[nH]c2ccccc2c(=O)n1CCCN1CCC(Nc2nc3cccnc3n2Cc2ccc(F)cc2)CC1 [Compound 37]
- ED50 [2]: 0.16 mg/kg

SMILES: O=c1[nH]c2ccccc2c(=O)n1CCCCN1CCC(Nc2nc3ccccc3n2Cc2ccco2)CC1 [Compound 128, 3-[4-[4-[[1-(2-furanylmethyl)-1H-benzimidazol-2-yl]amino]-1-piperidinyl]-butyl]-2,4(1H,3H)-quinazolinedione]
- ED50 [2]: 0.08 mg/kg
